Test results: patent publication US11077199B2, “Albumin binding peptide conjugates and methods thereof” (Massachusetts Institute of Technology, priority 2017, dated 2021)

Key:
[1] = target: T1, MHC (H2-Db) (Mus musculus, UniProt P01899); conditions: H2-Db epitope; van Stipdonk et al. 2009; cited from earlier work
T1 sequence (P01899 25-362): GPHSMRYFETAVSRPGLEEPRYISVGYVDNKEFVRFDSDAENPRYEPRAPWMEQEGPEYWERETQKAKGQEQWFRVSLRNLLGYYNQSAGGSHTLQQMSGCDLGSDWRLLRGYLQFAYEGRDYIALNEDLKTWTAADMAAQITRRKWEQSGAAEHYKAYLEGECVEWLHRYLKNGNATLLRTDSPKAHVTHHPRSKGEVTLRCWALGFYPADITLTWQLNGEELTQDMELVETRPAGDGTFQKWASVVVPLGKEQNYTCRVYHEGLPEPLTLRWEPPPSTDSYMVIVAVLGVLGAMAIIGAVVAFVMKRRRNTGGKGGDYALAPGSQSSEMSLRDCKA
T1 sequence (P01887 21-119 partner): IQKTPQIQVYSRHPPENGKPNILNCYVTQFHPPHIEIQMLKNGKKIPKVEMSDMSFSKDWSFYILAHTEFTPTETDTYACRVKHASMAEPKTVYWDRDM

[2] = test system: CD44hi H-2Db gp100 tetramer+ CD8+ T cells; test: Immunization with ABP-antigen constructs, tetramer staining of peripheral blood; assay type: in vivo, C57BL6/J mice; conditions: for percentage CD44hi tetramer+ of total live CD8+ T cells: 5 nmol with 25 ug c-di-GMP adjuvant, prime day 0, boost day 14, peripheral blood day 21, mean response
Source text: To test whether these albumin-binding peptides could enhance vaccination, a model melanoma antigen called gp100 was utilized. Vaccination against gp100 has shown significant preclinical activity (van Stipdonk, M. J. B. et al. Design of agonistic altered peptides for the robust induction of CTL directed towards H-2Db in complex with the melanoma-associated epitope gp100. Cancer research 69, 7784-7792, doi:10.1158/0008-5472.CAN-09-1724 (2009)) and has also been used clinically (Schwartzentruber, D. J. et al. gp100 Peptide Vaccine and Interleukin-2 in Patients with Advanced Melanoma. New England Journal of Medicine 364, 2119-2127, doi:10.1056/NEJMoa1012863 (2011)). An altered peptide ligand form of gp100 called EGP (sequence
To test the immunogenicity of ABP-modified peptides, C57BL6/J mice (Jackson Laboratories) were immunized with 5 nmol either ABP-G4S-EGP, ABP-PEG2000-EGP, or unmodified EGP peptide. Vaccines were formulated with 25 ug c-di-GMP (Invivogen) for adjuvant in 100 uL total volume (with sterile saline as diluent). Mice were primed on day 0, boosted on day 14, and tetramer staining was performed on day 21 to assess T cell priming in peripheral blood. (FIG. 5). Briefly, blood was isolated retro-orbitally, subjected to lysis to remove red blood cells, and incubated with tetramer (H-2Db gp100, MBL) at room temperature for 30 minutes, followed by surface staining for CD8 and CD44. DAPI was included as a viability marker, and cells were run on the LSR Fortessa (BD Biosciences). Responses were quantified as the percentage CD44^hi tetramer+ of total live CD8+ T cells. […] (FIG. 6).

Row | Sequence | affinity for MHC relative to native form (EGS) [1] | percentage CD44hi tetramer+ of total live CD8+ T cells [2] [%] | response compared with background in unimmunized mice ([2]; day 21 tetramer staining, background 0.82%) | fold higher response than unmodified peptide ([2]; CD44hi tetramer+ of live CD8+ T cells, day 21, relative to unmodified EGP peptide)
1 | AVGALEGPRNQDWLGVPRQL (Synthetic EGP long peptide) [unmodified EGP peptide, altered peptide ligand form of melanoma antigen gp100] | enhanced affinity for MHC over the native form | 1.45 | not statistically different from background | 
2 | DICLPRWGCLWGGGGSAVGALEGPRNQDWLGVPRQL [ABP-G4S-EGP] |  | 5.56 |  | approximately 4 fold
